Data as given in patent publication US10828317B2, “Method of treating bacterial infections” (priority 2016, dated 2020).
Like-named read-outs stand apart in the source and are kept apart here.

Key:
S. marescens EN0454 = assay: MIC; assay type: cell-based, Serratia marescens; conditions: Serratia, read-out: MIC
M. luteus EN0455 = assay: MIC; assay type: cell-based, Micrococcus luteus; conditions: Micrococcus luteus, read-out: MIC
P. mirabilis EN0457 = assay: MIC; assay type: cell-based, Proteus mirabilis; conditions: Proteus mirabilis, read-out: MIC
E. coli B EN0458 = assay: MIC; assay type: cell-based, Escherichia coli B; conditions: Escherichia coli, read-out: MIC
P. aeruginosa EN0459 = assay: MIC; assay type: cell-based, Pseudomonas aeruginosa; conditions: Pseudomonas aeruginosa, read-out: MIC
P. aeruginosa EN0460 = assay: MIC; assay type: cell-based, Pseudomonas aeruginosa; conditions: Pseudomonas aeruginosa, read-out: MIC
E. aerogenes EN0461 = assay: MIC; assay type: cell-based, Enterobacter aerogenes; conditions: Klebsiella aerogenes, read-out: MIC
K. pneumoniae EN0463 = assay: MIC; assay type: cell-based, Klebsiella pneumoniae; conditions: Klebsiella pneumoniae, read-out: MIC
S. epidermidis EN0456 = assay: MIC; assay type: cell-based, Staphylococcus epidermidis; conditions: Staphylococcus epidermidis, read-out: MIC
Citrobacter sp. EN0465 = assay: MIC; assay type: cell-based; conditions: Citrobacter, read-out: MIC
[1] = tested on: A. pittii or A. nosocomialis EN0180; assay: MIC; assay type: cell-based, Acinetobacter pittii or nosocomialis; conditions: read-out: MIC
P. mirabilis ST19 EN0445 = assay: MIC; assay type: cell-based, Proteus mirabilis; conditions: Proteus mirabilis, read-out: MIC
E. coli EN001 = assay: MIC, WT (EN001 = EN0001, ATCC 25922); assay type: cell-based, Escherichia coli
E. coli EN002 = assay: MIC, DtoIC; assay type: cell-based, Escherichia coli; conditions: Escherichia coli, read-out: MIC
E. coli EN003 = assay: microbe, parasite or virus in culture; assay type: cell-based, Escherichia coli; conditions: Escherichia coli, EN003, combination didanosine+trimethoprim+uridine, Table 10
K. pneumoniae EN006 = assay: MIC, WT (EN006 = EN0006, ATCC 13883); assay type: cell-based, Klebsiella pneumoniae; conditions: Klebsiella pneumoniae, read-out: MIC
A. baumannii EN007 = assay: MIC, WT (EN007 = EN0007); assay type: cell-based, Acinetobacter baumannii
S. aureus EN008 = assay: MIC, Gram-positive control; assay type: cell-based, Staphylococcus aureus; conditions: Staphylococcus aureus, read-out: MIC
E. coli EN012 = assay: MIC, WT; assay type: cell-based, Escherichia coli; conditions: Escherichia coli, read-out: MIC
P. aeruginosa EN014 = assay: MIC, WT; assay type: cell-based, Pseudomonas aeruginosa; conditions: Pseudomonas aeruginosa, read-out: MIC
A. baumannii EN016 = assay: MIC, WT; assay type: cell-based, Acinetobacter baumannii; conditions: Acinetobacter baumannii, read-out: MIC
E. coli EN0134 = assay: MIC, AmpC (CMY-4); assay type: cell-based; conditions: Escherichia coli, EN0134, combination didanosine+trimethoprim+uridine, Table 20; read-out: MIC
E. coli EN0136 = assay: MIC, ESBL (CTX-M-2); assay type: cell-based; conditions: Escherichia coli, read-out: MIC
E. coli EN0137 = assay: MIC, ESBL (CTX-M-15); assay type: cell-based; conditions: Escherichia coli, EN0137, combination didanosine+trimethoprim+uridine, Table 20; read-out: MIC
E. coli EN0235 = assay: microbe, parasite or virus in culture; assay type: cell-based; conditions: Escherichia coli
K. pneumoniae EN0140 = assay: MIC, AmpC (DHA-1); assay type: cell-based; conditions: Klebsiella pneumoniae, EN0140, combination didanosine+trimethoprim+uridine, Table 20; read-out: MIC
K. pneumoniae EN0144 = assay: MIC, MBL (VIM-1); assay type: cell-based; conditions: Klebsiella pneumoniae, EN0144, combination didanosine+trimethoprim+uridine, Table 20; read-out: MIC
K. pneumoniae EN0145 = assay: MIC, KPC-2; assay type: cell-based; conditions: Klebsiella pneumoniae, read-out: MIC
K. pneumoniae EN0244 = assay: MIC, colistinR; assay type: cell-based; conditions: Klebsiella pneumoniae, EN0244, combination didanosine+trimethoprim+uridine, Table 20; read-out: MIC
K. pneumoniae EN0245 = assay: MIC, colistinR; assay type: cell-based; conditions: Klebsiella pneumoniae, EN0245, combination didanosine+trimethoprim+uridine, Table 20; read-out: MIC
K. pneumoniae EN0249 = assay: MIC, colistinR; assay type: cell-based; conditions: Klebsiella pneumoniae, EN0249, combination didanosine+trimethoprim+uridine, Table 20; read-out: MIC
S. flexneri APV00907 = assay: MIC and antibiogram; assay type: cell-based; conditions: Shigella flexneri, Table 22A
Description: Inhibition of Heliobacter is important in view of increasing resistance and its association to gastric cancer.

S. sonnei APV00908 = assay: MIC and antibiogram; assay type: cell-based; conditions: Shigella sonnei, Table 22A
[2] = combination AZT+trimethoprim+uridine, Table 17B

Measured: MIC

O=c1ccn([C@@H]2O[C@H](CO)[C@@H](O)[C@H]2O)c(=O)[nH]1 [Uridine, uridine]
13 µg/mL: E. coli EN001; Escherichia coli, EN001, combination FdUrd+trimethoprim+uridine, Table 8, read-out: MIC | E. coli EN001; Escherichia coli, EN001, combination didanosine+trimethoprim+uridine, Table 10, read-out: MIC | E. coli EN001; [2] | E. coli EN0136; EN0136, combination AZT+trimethoprim+uridine, Table 17B | E. coli EN0235; EN0235, combination didanosine+trimethoprim+uridine, Table 20
60 µg/mL: E. aerogenes EN0461; EN0461, combination AZT+trimethoprim+uridine, Table 6
> 1000 µg/mL: P. aeruginosa EN0459; EN0459, combination AZT+trimethoprim+uridine, Table 6 | P. aeruginosa EN0460; EN0460, combination AZT+trimethoprim+uridine, Table 6 | Citrobacter sp. EN0465; SP.EN0465, combination AZT+trimethoprim+uridine, Table 6 | [1]; combination AZT+trimethoprim+uridine, Table 6 | P. mirabilis ST19 EN0445; ST19EN0445, combination AZT+trimethoprim+uridine, Table 6 | A. baumannii EN007; Acinetobacter baumannii, EN007, combination AZT+trimethoprim+uridine, Table 6, read-out: MIC | P. aeruginosa EN014; EN014, combination AZT+trimethoprim+uridine, Table 6 | A. baumannii EN016; EN016, combination AZT+trimethoprim+uridine, Table 6
4 µg/mL: E. coli EN002; EN002, combination AZT+trimethoprim+uridine, Table 6
200 µg/mL: M. luteus EN0455; EN0455, Combination 1 AZT+trimethoprim+uridine, Table 16 | M. luteus EN0455; EN0455, combination FdUrd+trimethoprim+uridine, Table 8 | M. luteus EN0455; EN0455, combination didanosine+trimethoprim+uridine, Table 10 | P. mirabilis EN0457; EN0457, Combination 1 AZT+trimethoprim+uridine, Table 16 | E. aerogenes EN0461; EN0461, Combination 2 AZT+trimethoprim+uridine+thymidine, Table 16 | S. epidermidis EN0456; EN0456, Combination 2 AZT+trimethoprim+uridine+thymidine, Table 16 | S. flexneri APV00907; APV00907, combination AZT+trimethoprim+uridine
6.4 µg/mL: E. coli EN001; Escherichia coli, EN001, Combination 1 AZT+trimethoprim+uridine, Table 16, read-out: MIC
>400 µg/mL: A. baumannii EN007; [2] | A. baumannii EN007; combination FdUrd+trimethoprim+uridine, Table 19 | A. baumannii EN007; combination didanosine+trimethoprim+uridine, Table 20
12.5 µg/mL: K. pneumoniae EN0463; EN0463, Combination 1 AZT+trimethoprim+uridine, Table 16 | E. coli EN002; EN002, Combination 2 AZT+trimethoprim+uridine+thymidine, Table 16 | K. pneumoniae EN006; EN006, Combination 1 AZT+trimethoprim+uridine, Table 16
3 µg/mL: E. coli B EN0458; BEN0458, combination FdUrd+trimethoprim+uridine, Table 8 | E. coli B EN0458; BEN0458, combination didanosine+trimethoprim+uridine, Table 10 | E. coli EN012; EN012, combination FdUrd+trimethoprim+uridine, Table 8 | S. sonnei APV00908; APV00908, combination AZT+trimethoprim+uridine
> 400 µg/mL: S. marescens EN0454; EN0454, Combination 1 AZT+trimethoprim+uridine, Table 16 | S. marescens EN0454; EN0454, Combination 2 AZT+trimethoprim+uridine+thymidine, Table 16 | S. marescens EN0454; EN0454, combination didanosine+trimethoprim+uridine, Table 10 | M. luteus EN0455; EN0455, Combination 2 AZT+trimethoprim+uridine+thymidine, Table 16 | P. mirabilis EN0457; EN0457, Combination 2 AZT+trimethoprim+uridine+thymidine, Table 16 | P. aeruginosa EN0459; EN0459, Combination 1 AZT+trimethoprim+uridine, Table 16 | P. aeruginosa EN0459; EN0459, Combination 2 AZT+trimethoprim+uridine+thymidine, Table 16 | P. aeruginosa EN0459; EN0459, combination FdUrd+trimethoprim+uridine, Table 8 | P. aeruginosa EN0459; EN0459, combination didanosine+trimethoprim+uridine, Table 10 | P. aeruginosa EN0460; EN0460, Combination 1 AZT+trimethoprim+uridine, Table 16 | P. aeruginosa EN0460; EN0460, Combination 2 AZT+trimethoprim+uridine+thymidine, Table 16 | P. aeruginosa EN0460; EN0460, combination FdUrd+trimethoprim+uridine, Table 8 | P. aeruginosa EN0460; EN0460, combination didanosine+trimethoprim+uridine, Table 10 | Citrobacter sp. EN0465; SP.EN0465, Combination 1 AZT+trimethoprim+uridine, Table 16 | Citrobacter sp. EN0465; SP.EN0465, Combination 2 AZT+trimethoprim+uridine+thymidine, Table 16 | Citrobacter sp. EN0465; SP.EN0465, combination FdUrd+trimethoprim+uridine, Table 8 | Citrobacter sp. EN0465; SP.EN0465, combination didanosine+trimethoprim+uridine, Table 10 | [1]; Combination 1 AZT+trimethoprim+uridine, Table 16 | [1]; Combination 2 AZT+trimethoprim+uridine+thymidine, Table 16 | [1]; combination didanosine+trimethoprim+uridine, Table 10 | P. mirabilis ST19 EN0445; ST19EN0445, Combination 2 AZT+trimethoprim+uridine+thymidine, Table 16 | A. baumannii EN007; Acinetobacter baumannii, EN007, Combination 1 AZT+trimethoprim+uridine, Table 16, read-out: MIC | A. baumannii EN007; Acinetobacter baumannii, EN007, Combination 2 AZT+trimethoprim+uridine+thymidine, Table 16, read-out: MIC | A. baumannii EN007; Acinetobacter baumannii, EN007, combination FdUrd+trimethoprim+uridine, Table 8, read-out: MIC | A. baumannii EN007; Acinetobacter baumannii, EN007, combination didanosine+trimethoprim+uridine, Table 10, read-out: MIC | S. aureus EN008; EN008, Combination 2 AZT+trimethoprim+uridine+thymidine, Table 16 | P. aeruginosa EN014; EN014, Combination 1 AZT+trimethoprim+uridine, Table 16 | P. aeruginosa EN014; EN014, Combination 2 AZT+trimethoprim+uridine+thymidine, Table 16 | P. aeruginosa EN014; EN014, combination FdUrd+trimethoprim+uridine, Table 8 | P. aeruginosa EN014; EN014, combination didanosine+trimethoprim+uridine, Table 10 | A. baumannii EN016; EN016, Combination 1 AZT+trimethoprim+uridine, Table 16 | A. baumannii EN016; EN016, Combination 2 AZT+trimethoprim+uridine+thymidine, Table 16 | A. baumannii EN016; EN016, combination didanosine+trimethoprim+uridine, Table 10 | E. coli EN0134 | E. coli EN0136; EN0136, combination didanosine+trimethoprim+uridine, Table 20 | E. coli EN0137 | K. pneumoniae EN0140 | K. pneumoniae EN0144 | K. pneumoniae EN0145; EN0145, combination FdUrd+trimethoprim+uridine, Table 19 | K. pneumoniae EN0145; EN0145, combination didanosine+trimethoprim+uridine, Table 20 | K. pneumoniae EN0244 | K. pneumoniae EN0245 | K. pneumoniae EN0249 | S. flexneri APV00907; APV00907, combination FdUrd+trimethoprim+uridine | S. sonnei APV00908; APV00908, combination FdUrd+trimethoprim+uridine
6 µg/mL: S. epidermidis EN0456; EN0456, combination didanosine+trimethoprim+uridine, Table 10 | E. coli EN002; EN002, combination FdUrd+trimethoprim+uridine, Table 8 | E. coli EN002; EN002, combination didanosine+trimethoprim+uridine, Table 10 | E. coli EN003 | E. coli EN012; EN012, combination didanosine+trimethoprim+uridine, Table 10 | E. coli EN0235; EN0235, combination FdUrd+trimethoprim+uridine, Table 19
500 µg/mL: M. luteus EN0455; EN0455, combination AZT+trimethoprim+uridine, Table 6 | P. mirabilis EN0457; EN0457, combination AZT+trimethoprim+uridine, Table 6
66.4 µg/mL: S. epidermidis EN0456; EN0456, Combination 1 AZT+trimethoprim+uridine, Table 16
< 0.8 µg/mL: S. epidermidis EN0456; EN0456, combination FdUrd+trimethoprim+uridine, Table 8 | S. aureus EN008; EN008, combination FdUrd+trimethoprim+uridine, Table 8
400 µg/mL: [1]; combination FdUrd+trimethoprim+uridine, Table 8 | A. baumannii EN016; EN016, combination FdUrd+trimethoprim+uridine, Table 8
16 µg/mL: K. pneumoniae EN0463; EN0463, combination AZT+trimethoprim+uridine, Table 6 | S. epidermidis EN0456; EN0456, combination AZT+trimethoprim+uridine, Table 6 | E. coli EN001; Escherichia coli, EN001, combination AZT+trimethoprim+uridine, Table 6, read-out: MIC | K. pneumoniae EN006; EN006, combination AZT+trimethoprim+uridine, Table 6
